The test system of assay [1] is Sf21. Particulars: Homo sapiens, at 20 µM.
Description: Inhibition of recombinant N-terminal GST-tagged human BRAF (433-726 residues) expressed in baculovirus infected sf21 insect cells/recombinant human full length N-terminal GST-tagged MEK1 expressed in Escherichia coli cascading pathway assessed as reduction in MEK1 phosphorylation at 20 uM incubated for 2 hrs by HTRF assay relative to control
The species entered for assay [2] is Homo sapiens. Particulars: at 20 µM.
Description: Inhibition of GST-tagged MEK1/ERK2 (unknown origin) cascading pathway assessed as reduction in ERK2 phosphorylation at 20 uM incubated for 2 hrs by HTRF assay relative to control
A short description of assay [3]: Inhibition of BRAF/MEK1 (unknown origin) cascading pathway assessed as reduction in MEK1 phosphorylation incubated for 2 hrs in presence of 300 uM ATP by HTRF assay. Set-up: species or system Homo sapiens.
A further assay relates to HL-60. As to the kind of experiment: cells. Format: functional, cell-based. Particulars: Homo sapiens, HL-60, 72 h.
The subject of another assay is A549. As to the kind of experiment: cells. It counts as functional, cell-based. The following applies: Homo sapiens, A549, 72 h.
Assay [4] is described as follows: Inhibition of BRAF/MEK1 (unknown origin) cascading pathway assessed as reduction in MEK1 phosphorylation incubated for 2 hrs in presence of 100 uM ATP by HTRF assay. Set-up: species or system Homo sapiens. (TR-FRET usually uses a lanthanide donor and a delayed reading to cut background.)
The subject of a further assay is A-375. As to the kind of experiment: cells. It counts as functional, cell-based. Particulars: Homo sapiens, A-375, 72 h.
A further assay has as its system HEK293. As to the kind of experiment: cells. It counts as ADME, cell-based. The following applies: Homo sapiens, HEK293, 72 h.
Assay [5] deals with Sf21. Particulars: Homo sapiens, at 2 µM.
Description: Inhibition of recombinant N-terminal GST-tagged human BRAF (433-726 residues) expressed in baculovirus infected sf21 insect cells/recombinant human full length N-terminal GST-tagged MEK1 expressed in Escherichia coli cascading pathway assessed as reduction in MEK1 phosphorylation at 2 uM incubated for 2 hrs by HTRF assay relative to control
For assay [6], the species on record is Homo sapiens. Particulars: at 2 µM.
Description: Inhibition of GST-tagged MEK1/ERK2 (unknown origin) cascading pathway assessed as reduction in ERK2 phosphorylation at 2 uM incubated for 2 hrs by HTRF assay relative to control
Assay [7] deals with Dual specificity mitogen-activated protein kinase kinase 1 (Homo sapiens) (UniProt Q02750). The experiment in a line: Inhibition of recombinant full length GST-tagged human MEK1 expressed in baculovirus infected sf9 insect cells at 2 uM measured after 30 to 90 mins by HTRF based Lanthascreen Eu kinase binding assay relative to AZD6244.
Assay [8] can be described thus: Inhibition of GST-tagged MEK1/ERK2 (unknown origin) cascading pathway assessed as reduction in ERK2 phosphorylation incubated for 2 hrs by HTRF assay relative to control. Set-up: species or system Homo sapiens.
In assay [9] the target is Dual specificity mitogen-activated protein kinase kinase 1 (Homo sapiens) (UniProt Q02750). As to the kind of experiment: Inhibition of recombinant full length GST-tagged human MEK1 expressed in baculovirus infected sf9 insect cells at 20 uM measured after 30 to 90 mins by HTRF based Lanthascreen Eu kinase binding assay relative to AZD6244.

This is an account of results in ChEMBL document CHEMBL4364288, “Discovery of carbazole derivatives as novel allosteric MEK inhibitors by pharmacophore modeling and virtual screening” (Eur J Med Chem, 2019).

The inhibition is the drop in the measured response relative to a control, in per cent. By IC50 is commonly meant the midpoint of a concentration-inhibition curve.

Chain of Dual specificity mitogen-activated protein kinase kinase 1 (Homo sapiens) (Q02750 whole entry): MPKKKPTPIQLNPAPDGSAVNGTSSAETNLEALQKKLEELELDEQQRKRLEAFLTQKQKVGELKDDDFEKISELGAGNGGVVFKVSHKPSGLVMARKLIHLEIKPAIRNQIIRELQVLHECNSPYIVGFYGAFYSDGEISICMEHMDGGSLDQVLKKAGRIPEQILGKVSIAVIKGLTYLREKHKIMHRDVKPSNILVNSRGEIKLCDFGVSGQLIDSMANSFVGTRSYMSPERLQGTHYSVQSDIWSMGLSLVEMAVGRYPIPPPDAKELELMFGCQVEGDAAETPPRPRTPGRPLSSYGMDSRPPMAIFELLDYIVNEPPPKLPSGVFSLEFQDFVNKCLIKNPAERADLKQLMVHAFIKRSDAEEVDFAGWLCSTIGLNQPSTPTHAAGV
Description for A-375: Antiproliferative activity against human A375 cells assessed as cell viability incubated for 72 hrs by cell titer-glo luminescent cell viability assay (Rvb = > 100 uM)

Turning to `CCOC(=O)COc1cc(NS(=O)(=O)c2ccc(NC(C)=O)cc2)c2[nH]c3ccccc3c2c1`, the figures for the inhibition in the assay with Sf21 [1] and in the assay filed under Homo sapiens [2] were 27.4% and 18.2%, respectively.
For `Cc1ccc(S(=O)(=O)Nc2cc(OCC(=O)O)cc3c2[nH]c2ccccc23)cc1`, the IC50 in assay [3] is 12.1 µM; in the assay on HL-60 it was over 100 µM; with A549, over 100 µM; in assay [4], 13.2 µM; in the assay with A-375, over 100 µM; with HEK293, over 100 µM. Besides, the inhibition in the assay on Sf21 [1] turned out to be 65.8%; in the assay listed under Homo sapiens [2], 21.5%.
`Cc1ccc(S(=O)(=O)Nc2cc(OCc3nnn[nH]3)cc3c2[nH]c2ccccc23)cc1`: the inhibition with Sf21 [1] amounted to 46.8%; in the assay listed under Homo sapiens [2], 45.1%.
For `Cc1ccc(S(=O)(=O)Nc2cc(OCc3nnc(C)o3)cc3c2[nH]c2ccccc23)cc1`, in that order: 48.6% and 25.8%.
For `CCOC(=O)CSc1cc(NS(=O)(=O)c2ccc(NC(C)=O)cc2)c2[nH]c3ccccc3c2c1`, in that order: 35.8% and 21.8%.
Taken in the same sequence, the figures for `Cc1ccc(S(=O)(=O)Nc2cc(S(=O)(=O)CC(=O)O)cc3c2[nH]c2ccccc23)cc1` were 45% and 35.5%.
Take `CC(=O)Nc1ccc(S(=O)(=O)Nc2cc(SCC(=O)O)cc3c2[nH]c2ccccc23)cc1`: the values for the inhibition in the assay on Sf21 [1] and in the assay filed under Homo sapiens [2] were 44.2% and 27.7%, respectively.
As to `CC(=O)Nc1cccc(S(=O)(=O)Nc2cc(OCc3nnc(C)o3)cc3c2[nH]c2ccccc23)c1`, the inhibition was 29.5% with Sf21 [1] and -10% in the assay listed under Homo sapiens [2].
As for `CC(=O)Nc1ccc(S(=O)(=O)Nc2cc(OCc3nnc(C)o3)cc3c2[nH]c2ccccc23)cc1`, the inhibition was 50.7% in the assay on Sf21 [1] and 20.6% in the assay filed under Homo sapiens [2]. Besides, the IC50 with HL-60 was over 100 µM; in the assay with A549, over 100 µM; in the assay on A-375, 43.7 µM; with HEK293, over 100 µM.
Consider `Cc1ccc(S(=O)(=O)Nc2cc(OCc3nc(C)no3)cc3c2[nH]c2ccccc23)cc1`, for which the figures for the inhibition in the assay on Sf21 [1] and in the assay listed under Homo sapiens [2] were 38.2% and 37.8%, respectively.
Take `N#CC(=C(/N)Sc1ccccc1N)/C(C#N)=C(\N)Sc1ccccc1N`: the inhibition with Sf21 [5] was found to be 41.7%; in the assay with Sf21 [1] it was 87.4%; in the assay filed under Homo sapiens [6] it was 26.9%; in the assay listed under Homo sapiens [2], 80.9%. The IC50 came to 32.2 µM with A549 and 1.1 µM in the assay with A-375.
Consider `Cc1ccc(S(=O)(=O)Nc2cc(OCc3nnc(N)o3)cc3c2[nH]c2ccccc23)cc1`, for which the values for the inhibition in the assay with Sf21 [1] and in the assay listed under Homo sapiens [2] were 33% and 21.4%, respectively.
Take `CCOC(=O)CSc1cc(NS(=O)(=O)c2ccc(C)cc2)c2[nH]c3ccccc3c2c1`: the inhibition in the assay on Sf21 [1] is 45.2%; in the assay filed under Homo sapiens [2] it was 39.2%.
With `CCOC(=O)COc1cc(NS(=O)(=O)c2ccc(C)cc2)c2[nH]c3ccccc3c2c1`, the inhibition with Sf21 [1] was 56.6%; in the assay listed under Homo sapiens [2], 28.9%. Moreover, the IC50 with HL-60 is over 100 µM; with A549, 70.7 µM; in the assay on A-375, 70.7 µM; in the assay with HEK293 it was over 100 µM.
As for `Cc1ccc(S(=O)(=O)Nc2cc(SCC(=O)O)cc3c2[nH]c2ccccc23)cc1`, the results for the inhibition in the assay with Sf21 [1] and in the assay listed under Homo sapiens [2] were 67.2% and 21.4%, respectively. Besides, the IC50 in the assay on HL-60, in the assay on A549, in the assay with A-375 and in the assay with HEK293 was over 100 µM throughout.
Consider `Cc1ccc(S(=O)(=O)Nc2cc(SCC(=O)O)c(O)c3ccccc23)cc1`, for which the inhibition with Sf21 [5] was found to be 4.4%; with Sf21 [1] it was 56.1%; in assay [7], 32.1%; in assay [9], 90.3%; in the assay listed under Homo sapiens [6], 3.9%; in the assay filed under Homo sapiens [2], 32%. In addition, the concentration for half-maximal inhibition (IC50) in the assay on HL-60 is 17.2 µM; in the assay with A549, 21.6 µM; with A-375, 7.7 µM; in [8], over 160 µM; with HEK293, 8.9 µM.
With `Cc1ccc(S(=O)(=O)Nc2cc(SCC(=O)O)c(O)c3c2[nH]c2ccccc23)cc1`, the inhibition was found to be 43.7% with Sf21 [1] and 35.6% in the assay filed under Homo sapiens [2]. The IC50 is 26.3 µM in the assay with HL-60, 12.8 µM in the assay on A549, 14.7 µM with A-375 and over 100 µM in the assay with HEK293.
Turning to `COc1cc(/C=C2\C(=O)NN(c3ccc(I)cc3)C2=O)ccc1OC(C)=O`, the inhibition in the assay with Sf21 [5] was found to be 6.3%; in the assay with Sf21 [1] it was 57%; in assay [7], 11.9%; in [9], 60.1%; in the assay filed under Homo sapiens [6], 5.1%; in the assay filed under Homo sapiens [2], 35%. Moreover, the IC50 in assay [8] is 63.1 µM.
Regarding `Cc1ccc(S(=O)(=O)Nc2cc(OCC(N)=O)cc3c2[nH]c2ccccc23)cc1`, the inhibition in the assay on Sf21 [1] turned out to be 41.9%; in the assay filed under Homo sapiens [2], 27.9%.
